How the values were obtained:
[1] = test system: barnyardgrass; assay: Test A pre-/postemergence herbicide test; assay type: in vivo, Echinochloa crus-galli
Outline: (§1)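 Seeds sown in loam soil/sand blend received a preemergence directed soil spray of test chemical in non-phytotoxic solvent with surfactant; postemergence plants (2–10 cm, one- to two-leaf stage) were sprayed with the same formulation. After about 10 days in greenhouse, injury was rated visually versus untreated controls, 0 (no effect) to 100 (complete control).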

[2] = test system: giant foxtail; assay: Test A pre-/postemergence herbicide test; assay type: in vivo, Setaria faberii
Outline: as §1

[3] = test system: corn; assay: Test A pre-/postemergence herbicide test; assay type: in vivo, Zea mays; conditions: Postemergence
Outline: as §1

[4] = test system: rice; assay: Test B flooded paddy test; assay type: in vivo, Oryza sativa; conditions: 1000 g ai/ha, Flood; scale of 0 to 100 where 0 is no effect and 100 is complete control
Outline: (§2)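 Paddy-water application at a 3 cm flood, young plants having two leaves. Water level maintained; greenhouse, 13–15 days; visual 0–100 control rating.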

[5] = test system: sedge, umbrella; assay: Test B flooded paddy test; assay type: in vivo, Cyperus difformis; conditions: 1000 g ai/ha, Flood; scale of 0 to 100 where 0 is no effect and 100 is complete control
Outline: as §2

[6] = test system: wheat (winter wheat); assay: Test C pre-/postemergence herbicide test; assay type: in vivo, Triticum aestivum
Outline: (§3)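 Visual rating, 0 (no effect) to 100 (complete control), versus untreated controls after 13 to 15 days in the greenhouse. Pre: seeds in loam/sand, sprayed at planting. Post: 1- to 4-leaf plants (2 to 18 cm) in peat-based mix. Compounds in non-phytotoxic solvent plus surfactant.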

[7] = test system: foxtail, giant; assay: Test C pre-/postemergence herbicide test; assay type: in vivo, Setaria faberii
Outline: as §3

[8] = test system: lambsquarters; assay: Test C pre-/postemergence herbicide test; assay type: in vivo, Chenopodium album
Outline: as §3

[9] = test system: morningglory; assay: Test C pre-/postemergence herbicide test; assay type: in vivo, Ipomoea coccinea
Outline: as §3

[10] = test system: nutsedge, yellow; assay: Test C pre-/postemergence herbicide test; assay type: in vivo, Cyperus esculentus
Outline: as §3

[11] = test system: velvetleaf; assay: Test C pre-/postemergence herbicide test; assay type: in vivo, Abutilon theophrasti
Outline: as §3

[12] = Postemergence, 125 g ai/ha, visual rating on 0 to 100 scale (0 no effect, 100 complete control), approx. 10 days
[13] = Postemergence, 500 g ai/ha, 0 to 100 scale (0 no effect, 100 complete control)
[14] = Preemergence, 125 g ai/ha, 0 to 100 scale where 0 is no effect and 100 is complete control
[15] = Preemergence, 500 g ai/ha, visual rating on 0 to 100 scale (0 no effect, 100 complete control)
[16] = Postemergence, 31 g ai/ha, scale 0 to 100 (0 no effect, 100 complete control)
[17] = Postemergence, 62 g ai/ha, scale 0 (no effect) to 100 (complete control)
[18] = Postemergence, 125 g ai/ha, scale 0 to 100 (0 no effect, 100 complete control)
[19] = Postemergence, 250 g ai/ha, scale 0 to 100 (0 no effect, 100 complete control)
[20] = Preemergence, 62 g ai/ha, scale 0 to 100 (0 no effect, 100 complete control)
[21] = Preemergence, 125 g ai/ha, scale 0 to 100
[22] = Preemergence, 31 g ai/ha, scale 0 to 100

## O=C1NCC(c2ccc(F)c(F)c2)C1C(=O)Nc1ccc(F)c(F)c1F (stereo not shown) [Compound 346]
[1]; [12]
  Plant response rating, Barnyardgrass: 80
[1]; [13]
  Plant response rating, Barnyardgrass: 90
[1]; [14]
  Plant response rating, Barnyardgrass: 80
[1]; [15]
  Barnyardgrass plant response rating: 90
[2]; [12]
  Plant response rating, Foxtail, Giant: 80
[2]; [13]
  Plant response rating, Foxtail, Giant: 90
[2]; [14]
  Plant response rating, Foxtail, Giant: 90
[2]; [15]
  Foxtail, Giant plant response rating: 90
[3]; 125 g ai/ha, visual rating on 0 to 100 scale (0 no effect, 100 complete control), approx. 10 days
  Plant response rating, Corn: 20
[3]; 500 g ai/ha, 0 to 100 scale (0 no effect, 100 complete control)
  Plant response rating, Corn: 40
[4]
  Plant response rating, Rice: 0
[5]
  Plant response rating, Sedge, Umbrella: 0
[6]; [16]
  Plant response rating, Wheat: 0
[6]; [17]
  Plant response rating, Wheat: 0
[6]; [18]
  Plant response rating, Wheat: 0
[6]; [19]
  Plant response rating, Wheat: 0
[6]; [20]
  Wheat plant response rating: 0
[6]; [21]
  Plant response rating, Wheat: 0
[6]; [22]
  Plant response rating, Wheat: 0
[7]; [16]
  Plant response rating, Foxtail, Giant: 20
[7]; [17]
  Plant response rating, Foxtail, Giant: 0
[7]; [18]
  Plant response rating, Foxtail, Giant: 40
[7]; [19]
  Plant response rating, Foxtail, Giant: 85
[7]; [20]
  Foxtail, Giant plant response rating: 90
[7]; [21]
  Plant response rating, Foxtail, Giant: 98
[7]; Preemergence, 250 g ai/ha
  Plant response rating (scale of 0 to 100), Foxtail, Giant: 98
[7]; [22]
  Plant response rating, Foxtail, Giant: 90
[8]; [16]
  Plant response rating, Lambsquarters: 45
[8]; [17]
  Plant response rating, Lambsquarters: 5
[8]; [18]
  Plant response rating, Lambsquarters: 5
[8]; [19]
  Plant response rating, Lambsquarters: 65
[8]; [20]
  Lambsquarters plant response rating: 35
[8]; [21]
  Plant response rating, Lambsquarters: 100
[8]; Preemergence, 250 g ai/ha
  Plant response rating (scale of 0 to 100), Lambsquarters: 100
[8]; [22]
  Plant response rating, Lambsquarters: 35
[9]; [16]
  Plant response rating, Morningglory: 0
[9]; [17]
  Plant response rating, Morningglory: 5
[9]; [18]
  Plant response rating, Morningglory: 15
[9]; [19]
  Plant response rating, Morningglory: 5
[9]; [20]
  Morningglory plant response rating: 0
[9]; [21]
  Plant response rating, Morningglory: 30
[9]; Preemergence, 250 g ai/ha
  Plant response rating (scale of 0 to 100), Morningglory: 0
[9]; [22]
  Plant response rating, Morningglory: 0
[10]; [16]
  Plant response rating, Nutsedge, Yellow: 0
[10]; [17]
  Plant response rating, Nutsedge, Yellow: 0
[10]; [18]
  Plant response rating, Nutsedge, Yellow: 0
[10]; [19]
  Plant response rating, Nutsedge, Yellow: 5
[10]; [20]
  Nutsedge, Yellow plant response rating: 0
[10]; [21]
  Plant response rating, Nutsedge, Yellow: 0
[10]; Preemergence, 250 g ai/ha
  Plant response rating (scale of 0 to 100), Nutsedge, Yellow: 0
[10]; [22]
  Plant response rating, Nutsedge, Yellow: 0
[11]; [16]
  Plant response rating, Velvetleaf: 0
[11]; [17]
  Plant response rating, Velvetleaf: 0
[11]; [18]
  Plant response rating, Velvetleaf: 5
[11]; [19]
  Plant response rating, Velvetleaf: 20
[11]; [20]
  Velvetleaf plant response rating: 0
[11]; [21]
  Plant response rating, Velvetleaf: 10
[11]; [22]
  Plant response rating, Velvetleaf: 0
